Measured values from patent US9265784B2, “Antineoplastic combinations of 4-anilino-3-cyanoquinolines and capecitabine” (WYETH LLC, priority 2008, dated 2016).
Read-outs that look alike come from different tables or passages of the source.

What was measured:
Assay type in all cases: in vivo, human
[1] = Preliminary pharmacokinetic analyses of neratinib after oral administration; details: for AUC / Cmax: oral daily; for AUC: read-out: Mean steady-state AUC; for Cmax: read-out: Mean steady-state Cmax
Excerpt: The mean accumulation ratio was 1.2 after a 240-mg dose, indicating no significant accumulation of neratinib after repeated daily dose administration at the dose to be used in this proposed trial.
The data indicated a slow distribution of neratinib with a large apparent volume of distribution (Vz/F on day 1: about 3188 to 6181 L) after oral absorption. […] There was moderate to large variability in neratinib t1/2, Cmax, and AUC; coefficients of variation (CVs) generally ranged from 8% to 90%.

[2] = system: erbB-2-overexpressing advanced or metastatic breast cancer; test: Ongoing phase 2 study of neratinib 240 mg daily oral, efficacy
Experimental: (§1) In an ongoing phase 2 study, neratinib is being administered as daily oral doses of 240 mg in subjects with erbB-2-overexpressing advanced or metastatic breast cancer, who received up to 4 prior cytotoxic chemotherapy treatment regimens, with prior trastuzumab therapy for metastatic or locally advanced disease (≧6 weeks) or with no prior exposure to erbB-2-targeted treatment. Preliminary results were obtained for 124 subjects evaluable for efficacy based on independent assessment and 131 subjects evaluable per investigator assessment. […] Median Progression Free Survival (PFS) for independent (and investigator) assessment was 23 (22), with a 16-week PFS rate of 61% (57%) in subjects who had received prior trastuzumab. For trastuzumab naïve subjects, PFS per independent (and investigator) assessment was 40 (35), with a 16-week PFS rate of 75% (78%).

[3] = Ongoing phase 2 study of neratinib 240 mg daily oral, adverse events
Experimental: as §1
The predominant AE was diarrhea, which was reversible and generally manageable by medication, temporary discontinuation of treatment, or dose reduction. Diarrhea that was considered related to neratinib occurred with a frequency of 94% of the subjects. Of those, grade 3-4 diarrhea was experienced by 25% of the subjects. Other common AEs were nausea (related to neratinib in 30%, grade 3-4 in 2% of the subjects), vomiting (related in 23%, grade 3-4 in 2%), fatigue (related in 20%, grade 3-4 in <2%), and anorexia (related in 16%, grade 3-4 in 4%). […] Presented at the Poster presented at the SABCS, San Antonio, USA].

[4] = human, in vivo, 400 mg (highest dose)
[5] = human, in vivo, 180-mg dose group
[6] = human, in vivo, 240-mg dose group
[7] = human, in vivo, 320-mg dose group
[8] = prior trastuzumab, independent assessment
[9] = prior trastuzumab, investigator assessment
[10] = trastuzumab naïve subjects, independent assessment
[11] = trastuzumab naïve subjects, investigator assessment

Structure (SMILES): CCOc1cc2ncc(C#N)c(Nc3ccc(OCc4ccccn4)c(Cl)c3)c2cc1NC(=O)/C=C/CN(C)C [neratinib, (2E)-N-[4-[[3-chloro-4-[(pyridin-2-yl)methoxy]phenyl]amino]-3-cyano-7-ethoxyquinolin-6-yl]-4-(dimethylamino)but-2-enamide]
- mean accumulation ratio ([1]; after a 240-mg dose, repeated daily administration): 1.2
- dose dependence of Cmax and AUC ([1]; after oral administration): increased in a dose-dependent manner
- AUC [1, 4]: 1700 ng·h/mL
- Cmax [1, 4]: 105 ng/mL
- AUC [1, 5]: 975 ng·h/mL
- Cmax [1, 5]: 70.1 ng/mL
- AUC [1, 6]: 939 ng·h/mL
- Cmax [1, 6]: 73.5 ng/mL
- AUC [1, 7]: 1330 ng·h/mL
- Cmax [1, 7]: 90.4 ng/mL
- Vd/F ([1]; human, in vivo, day 1, after oral absorption, read-out: apparent volume of distribution (Vz/F)): 3190 to 6180 L
- half-life ([1]; human, in vivo, oral administration, day 1, read-out: mean apparent terminal half-life (t1/2)): 13 to 17 h
- absorption ([1]; oral): relatively slow
- 16-week PFS rate [2, 8]: 61%
- Median Progression Free Survival (PFS) [2, 8]: 23
- 16-week PFS rate [2, 9]: 57%
- Median Progression Free Survival (PFS) [2, 9]: 22
- antitumor activity ([2]; subjects with erbB-2-positive advanced breast cancer, 240 mg daily oral): significant antitumor activity
- ORR ([2]; subjects with prior trastuzumab containing therapy in the metastatic setting, independently assessed, 240 mg daily oral): 26%
- ORR ([2]; subjects with prior trastuzumab containing therapy in the metastatic setting, investigator assessed, 240 mg daily oral): 35%
- 16-week PFS rate [2, 10]: 75%
- PFS [2, 10]: 40
- ORR ([2]; trastuzumab naïve subjects, independently assessed, 240 mg daily oral): 51%
- ORR ([2]; trastuzumab naïve subjects, investigator assessed, 240 mg daily oral): 62%
- 16-week PFS rate [2, 11]: 78%
- PFS [2, 11]: 35
- Diarrhea considered related to neratinib, frequency of subjects ([3]; 240 mg daily oral): 94%
- anorexia grade 3-4, subjects ([3]; 240 mg daily oral): 4%
- anorexia related, subjects ([3]; 240 mg daily oral): 16%
- fatigue grade 3-4, subjects ([3]; 240 mg daily oral): < 2%
- fatigue related, subjects ([3]; 240 mg daily oral): 20%
- grade 3-4 diarrhea, subjects ([3]; 240 mg daily oral): 25%
- nausea grade 3-4, subjects ([3]; 240 mg daily oral): 2%
- nausea related to neratinib, subjects ([3]; 240 mg daily oral): 30%
- vomiting grade 3-4, subjects ([3]; 240 mg daily oral): 2%
- vomiting related, subjects ([3]; 240 mg daily oral): 23%
- tolerability ([3]; daily oral doses of 240 mg): generally well tolerated
